Assay results from PMC8691691 (ACS Chemical Neuroscience, 2021).
Read-outs that look alike come from different tables or passages of the source.

Key:
GlyT1 [1] = molecular target: T1, GlyT1 (Rattus norvegicus, UniProt P28572); assay: [3H]glycine transport by recombinant GlyT1 expressed in COS7 cells; format: cell-based; conditions: 10 μM glycine
T1 construct: expressed in transfected cells; host or cells: COS7
T1 sequence (P28572 1-638): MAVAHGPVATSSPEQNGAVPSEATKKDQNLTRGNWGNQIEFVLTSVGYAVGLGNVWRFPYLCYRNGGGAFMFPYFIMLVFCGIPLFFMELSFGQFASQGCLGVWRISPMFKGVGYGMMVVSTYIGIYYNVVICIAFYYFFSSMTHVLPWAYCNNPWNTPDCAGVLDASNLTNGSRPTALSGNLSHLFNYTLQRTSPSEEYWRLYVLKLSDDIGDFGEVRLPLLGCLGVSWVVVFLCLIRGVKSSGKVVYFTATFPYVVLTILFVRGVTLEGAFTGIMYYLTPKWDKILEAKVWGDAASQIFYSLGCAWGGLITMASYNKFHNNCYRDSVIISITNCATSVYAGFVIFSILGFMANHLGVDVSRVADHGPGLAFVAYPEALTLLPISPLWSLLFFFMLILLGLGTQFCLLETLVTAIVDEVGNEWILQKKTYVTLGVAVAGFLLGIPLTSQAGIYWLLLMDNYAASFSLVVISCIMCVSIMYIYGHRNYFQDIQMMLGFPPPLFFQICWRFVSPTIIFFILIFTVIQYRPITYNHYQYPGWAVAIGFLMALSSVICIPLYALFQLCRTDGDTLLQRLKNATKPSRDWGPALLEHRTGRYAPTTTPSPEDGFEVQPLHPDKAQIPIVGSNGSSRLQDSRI
Protocol: Substitution mutants were generated with the QuikChange II Site-Directed Mutagenesis kit (Agilent Technologies, Santa Clara, CA, USA), using rGlyT2 or rGlyT1 subcloned in pCDNA3.[47] The complete coding region of all of the constructs was sequenced to verify that only the desired mutation had been introduced. […] COS7 cells were grown and transfected using Turbofect Transfection Reagent (Thermo Fisher Scientific, Waltham, MA, USA), following the manufacturer’s protocol (2 μL reagent/μg of DNA). Cells were incubated for 48 h at 37 °C until used.
At the end of the desired time (usually 10 min), reactions were washed and terminated by aspiration. […] A nonlinear curve fitting method was used to obtain IC50 values using Graphpad Prism software, version 6.0, Graphpad, San Diego, CA, USA.

GlyT2 I285F mutant = molecular target: T2, GlyT2 I285F mutant (Rattus norvegicus, UniProt P58295, I285F); assay: [3H]glycine transport by GlyT2 mutant in COS7 cells; format: cell-based
T2 construct: expressed in transfected cells; host or cells: COS7
T2 sequence (P58295 1-799 I285F): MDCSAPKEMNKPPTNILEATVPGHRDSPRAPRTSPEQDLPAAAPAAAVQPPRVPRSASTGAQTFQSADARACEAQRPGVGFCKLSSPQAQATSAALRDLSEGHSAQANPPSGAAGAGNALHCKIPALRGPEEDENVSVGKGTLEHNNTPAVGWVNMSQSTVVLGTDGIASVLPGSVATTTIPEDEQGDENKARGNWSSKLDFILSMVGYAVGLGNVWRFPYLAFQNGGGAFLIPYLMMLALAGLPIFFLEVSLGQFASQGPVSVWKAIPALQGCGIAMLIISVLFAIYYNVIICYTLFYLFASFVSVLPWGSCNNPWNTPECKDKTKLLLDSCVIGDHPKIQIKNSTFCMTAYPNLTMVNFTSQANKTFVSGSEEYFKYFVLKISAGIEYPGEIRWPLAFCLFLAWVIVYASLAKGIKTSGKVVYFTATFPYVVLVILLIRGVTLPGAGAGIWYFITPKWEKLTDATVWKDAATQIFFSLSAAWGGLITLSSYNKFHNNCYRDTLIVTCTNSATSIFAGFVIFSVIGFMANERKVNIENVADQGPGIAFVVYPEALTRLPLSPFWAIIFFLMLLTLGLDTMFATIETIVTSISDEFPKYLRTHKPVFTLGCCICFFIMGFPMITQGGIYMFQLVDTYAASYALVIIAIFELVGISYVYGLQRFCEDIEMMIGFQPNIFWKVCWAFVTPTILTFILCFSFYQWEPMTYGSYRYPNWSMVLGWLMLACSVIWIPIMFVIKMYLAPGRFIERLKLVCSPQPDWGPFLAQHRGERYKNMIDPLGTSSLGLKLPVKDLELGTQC

[2] = cited from earlier work
GlyT1 [3] = conditions: neuronal cultures and brain preparations; cited from earlier work
allodynia = conditions: nerve ligation injury, streptozotocin-induced diabetic pain, complete Freund's adjuvant-induced inflammatory pain; cited from earlier work
GlyT2 = conditions: cited from earlier work
[4] = due to its physiological irreversibility; cited from earlier work

SMILES	IC50, inhibition of glycine transport by GlyT1 (GlyT1 [1])	IC50 (GlyT2 I285F mutant; read-out: IC50 (Table S1)) [nM]	fraction of the drug that crosses the blood–brain barrier [2] [%]	concentrations at which GlyT1 is inhibited (GlyT1 [3]) [µM]	IC50 (GlyT2 I285F mutant) [nM]	blood–brain barrier crossing (in words) [2]	effect on allodynia (allodynia)	reversibility of GlyT2 inhibition (GlyT2)	toxicity in animals [4]
N[C@@H](COC(c1cccc(F)c1)c1ccccc1OCc1ccccc1)C(=O)O (stereo partly drawn) [ALX1393]	low μM range	91 ± 6	5	0.5 to 1	–	–	–	–	–
COc1cc(C(=O)NCC2(N(C)C)CCCC2)cc(OC)c1OCc1ccccc1 [ORG25543, N-[[1-(dimethylamino)cyclopentyl]methyl]-3,5-dimethoxy-4-(phenylmethoxy)benzamide]	–	–	–	–	15 ± 4	can cross the blood–brain barrier	reduces allodynia	irreversible GlyT2 inhibitor	generates toxicity in animals
